Legend:
[1] = system: B16 tumor; test: Chemotherapy of subcutaneous B16 tumor with DOX particles; assay type: in vivo, mice; settings: injected after 3 days
Procedure: To determine the maximum in vivo tolerated dose for the particles, a varying concentration of doses of 0 (PBS), 20, 40, and 60 mg/kg DOX equivalents are injected intravenously. The weights and general health of the mice are monitored until the ninth day after injection. Based on weight loss, the maximum injection of particles tolerated in mice is calculated. Once determined, mice are implanted subcutaneously with a B16 tumor. After 3 days mice are injected with PBS, free DOX, Ac-DEX particles encapsulating DOX, pegylated-Ac-DEX particles, or Doxcil (a commercially available doxorubicin/liposome conjugate). Mice are monitored for tumor growth. Once the tumor reaches an average diameter of 1.5 cm, the mice are sacrificed.

[2] = system: MO5 tumor cells; test: Tumor prophylactic vaccination, MO5 tumor challenge; assay type: in vivo, Mice; settings: immunized subcutaneously day 0, 200,000 MO5 tumor cells day 7
Procedure: In one embodiment, Ac-DEX particles will encapsulate OVA similar to (Example 9 with B3Z assay) and be used in a tumor prophylactic and treatment vaccination against cancer. MO5 is a B16 tumor cell line that expresses OVA (Falo et al. 1995, Targeting antigen into the phagocytic pathway in vivo induces protective tumour immunity. Nat Med 1:649-53). Mice are immunized subcutaneously with 2 mg of Ac-DEX particles with a 2.5 wt % loading of OVA (50 μg of OVA) in the left flank on day 0. Other groups include mice which are injected with either OVA, saline, or Ac-DEX particles encapsulating OVA and an immunostimulatory CpG stimulant. We have shown earlier that adding CpG with acid labile particles drastically increases the efficacy of treatment(Standley et al. 2007, Incorporation of CpG oligonucleotide ligand into protein-loaded particle vaccines promotes antigen-specific CD8 T-cell immunity. Bioconjug Chem 18:77-83). CpG can be either co-injected with the particles, or it can be encapsulated inside the particles. […]
After injection, the tumor growth is monitored by measuring two perpendicular axes using calipers. Tumor volume is then calculated using the equation, volume=[…], with the length being the longest diameter and the width being the shortest diameter of the two perpendicular measurements. […]

[3] = system: RAW macrophages; test: B3Z / LacZ MHC Class I antigen presentation assay; assay type: cell-based; settings: APCs incubated with free or encapsulated ovalbumin
Procedure: The LacZ MHC Class I antigen presentation assay, as described by Sanderson, S.; Shastri, N. in Inter. Immun. 1994, 6, 369-376, is performed with degradable polymer particles made according to Example 3 with the modified hydroxylated polymers of Example 2 to test their ability to deliver proteins into APCs for Class I antigen presentation. This experiment uses the LacZ B3Z hybridoma, which is a CTL that recognizes the peptide sequence, […] (SEQ ID NO: 8), from ovalbumin, complexed with the MHC Class I molecule H-2K^b. This hybridoma produces β-galactosidase after encountering APCs that present […] as a Class I antigen, thus allowing Class I antigen presentation to be quantified by measuring β-galactosidase activity.
In order to assess the feasibility of using Ac-DEX based materials for vaccine applications, OVA-loaded Ac-DEX particles were incubated with RAW macrophages. […] 1×10^4 RAW macrophages were seeded overnight in a 96 well plate and subsequently incubated with OVA-containing Ac-DEX particles or free OVA. […] After six hours of incubation, Ac-DEX particles increased MHC class I presentation of the OVA-derived CD8^+ T-cell epitope, […], by a factor of 16 relative to free OVA (FIG. 15) measured by the B3Z assay (Karttunen, J.; Shastri, N., Proc. Natl. Acad. Sci. U.S.A. 1991, 88, 3972-6).

Molecule	tumor growth (order of groups) [1]	tumor onset, tumor growth and survival time [2]	activation of CTLs (Class I antigen presentation) [3]
COc1cccc2c1C(=O)c1c(O)c3c(c(O)c1C2=O)C[C@@](O)(C(=O)CO)C[C@@H]3O[C@H]1C[C@H](N)[C@H](O)[C@H](C)O1 [free Dox, doxorubicin]	fastest tumor growth followed by, free Dox, Ac-DEX particles, Doxcil and finally PEGylated Ac-DEX particles		
free ovalbumin: ovalbumin, model protein antigen, not encapsulated		fastest tumor onset and tumor growth	not able to activate CTLs
